Patent publication US20250170105A1, “ASSOCIATION WITH ANTIBIOTIC ACTIVITY, PHARMACEUTICAL COMPOSITIONS CONTAINING IT AND THEIR USE IN THE TREATMENT OF INFECTIONS” (VETAGRO INTERNATIONAL S.R.L., priority 2022, published 2025)
Read-outs that look alike come from different tables or passages of the source. One block for each compound: values may come before it.

How the values were obtained:
Assay type in all cases: cell-based
[1] = test system: Escherichia coli K88 97; test: Individual tests, microdilution MIC; details: Escherichia coli
Procedure: (§1) Strains were stored at −80° C. in appropriate media with glycerol, thawed and cultured according to conventional practices.
(§2) The ABs shown in Tables 2 and 3 below, all obtained from Aplha Aesar, were tested. The OAs used are shown in Tables 2 and 3 below, all obtained from Merck. The stock solutions were prepared appropriately and in appropriate way and media for the different strains and could contain 3.5% ethanol to increase solubility.
(§3) The tests were conducted using the microdilution method in a 96-well plate to be microtitered with the medium and culture conditions appropriate for the strains. Bacterial strains (10^5-10^6 CFU/ml) were incubated with the compounds to be tested, while control strains, when necessary, were grown in media containing 3.5% ethanol to exclude an inhibitory effect of any ethanol present in the stock solutions. After incubation, MIC was defined as the lowest concentration resulting in zero absorbance at 630 nm, recorded with Varioskan® LUX Multimode Microplat Reader (Thermo Fisher Scientific). For each test, the percentage of inhibition (%) was calculated with respect to the relative control.
(§4) ABs were tested in the range 64-0.13 ppm, OAs in the range […] and NICs in the range 7.5-0.06 nM.

[2] = test system: Escherichia Coli K88 95; test: Individual tests, microdilution MIC; details: Escherichia coli
Procedure: as §1, §2, §3, §4

[3] = test system: Streptococcus suis 702; test: Individual tests, microdilution MIC
Procedure: as §1, §2, §3, §4

[4] = test system: Streptococcus suis 701; test: Individual tests, microdilution MIC
Procedure: as §1, §2, §3, §4

[5] = test system: Escherichia coli K88 97; test: Combination test, checkerboard, % inhibition; details: E. coli 97
Procedure: as §1, §3
(§5) After phase 1, the strains were tested with associations at sub-effective doses of AB and OA or NIC in a 2×2 checkerboard model. Specifically, two sub-effective doses of AB were associated with two sub-effective doses of OA or NIC (half and one-quarter of MICs) as shown in FIG. 1.
(§6) The % indicate the percentage of inhibition (compounds alone and combinations).
(§7) Tables 4 to 7 show the % of inhibition of the components of the associations alone, at the effective concentrations shown in Tables 2 and 3, and at the sub-effective concentrations (half and one-quarter of MICs), and the % of inhibition of the associations.

[6] = test system: Escherichia Coli K88 95; test: Combination test, checkerboard, % inhibition; details: E. coli 95
Procedure: as §1, §3, §5, §6, §7

[7] = test system: Streptococcus suis 702; test: Combination test, checkerboard, % inhibition; details: S. suis 702
Procedure: as §1, §3, §5, §6, §7

[8] = test system: Streptococcus suis 701; test: Combination test, checkerboard, % inhibition; details: S. suis 701
Procedure: as §1, §3, §5, §6, §7

[9] = K8897, E. coli 97, read-out: MIC values
[10] = COLIK8895, E. coli 95, read-out: MIC values
[11] = Streptococcus suis, S. suis 702, read-out: MIC values
[12] = Streptococcus suis, S. suis 701, read-out: MIC values
[13] = COLIK8895, read-out: MIC values

SMILES: O=C(O)c1ccccc1 [Benzoic Acid, benzoic acid]
% inhibition ([5]; BEN 12.5 mM alone): 79% | % inhibition ([5]; BEN 25 mM alone): 97% | % inhibition ([6]; BEN 12.5 mM alone): 63% | % inhibition ([6]; BEN 25 mM alone): 90% | % inhibition ([7]; BEN 6.25 mM alone): 21% | % inhibition ([7]; BEN 12.5 mM alone): 39% | % inhibition ([8]; BEN 12.5 mM alone): 22% | % inhibition ([8]; BEN 25 mM alone): 51% | MIC ([1]; K8897, read-out: MIC values): 50 mM | MIC [2, 13]: 50 mM | MIC ([3]; Streptococcus suis, 702, read-out: MIC values): 25 mM | MIC ([4]; Streptococcus suis, 701, read-out: MIC values): 50 mM

SMILES: C[C@H]1c2cccc(O)c2C(=O)C2=C(O)[C@]3(O)C(=O)C(C(N)=O)=C(O)[C@@H](N(C)C)[C@@H]3[C@@H](O)[C@@H]21 [Doxycycline]
MIC [3, 11]: 0.5 µg/mL | MIC [4, 12]: 16 µg/mL

SMILES: CCN1CCN(c2cc3c(cc2F)c(=O)c(C(=O)O)cn3C2CC2)CC1 [Enrofloxacin]
MIC [1, 9]: 2 µg/mL | MIC [2, 10]: 2 µg/mL | MIC [3, 11]: 0.5 µg/mL | MIC [4, 12]: 0.5 µg/mL

SMILES: C=CCc1ccc(O)c(OC)c1 [Eugenolo, eugenol]
% inhibition ([5]; EUG 0.94 mM alone): 26% | % inhibition ([5]; EUG 1.87 mM alone): 34% | % inhibition ([6]; EUG 0.94 mM alone): 31% | % inhibition ([6]; EUG 1.87 mM alone): 44% | % inhibition ([7]; EUG 0.94 mM alone): 9% | % inhibition ([7]; EUG 1.87 mM alone): 12% | % inhibition ([8]; EUG 0.94 mM alone): 6% | % inhibition ([8]; EUG 1.87 mM alone): 27% | MIC [1, 9]: 3.75 mM | MIC [2, 10]: 3.75 mM | MIC [3, 11]: 3.75 mM | MIC [4, 12]: 3.75 mM

SMILES: CS(=O)(=O)c1ccc([C@@H](O)[C@@H](CF)NC(=O)C(Cl)Cl)cc1 [Florfenicol]
MIC [1, 9]: > 64 µg/mL | MIC [2, 10]: 16 µg/mL | MIC [3, 11]: 2 µg/mL | MIC [4, 12]: 2 µg/mL

SMILES: CCCCCC(=O)O [Hexanoic acid, hexanoic acid]
% inhibition ([5]; HEX 12.5 mM alone): 65% | % inhibition ([5]; HEX 25 mM alone): 83% | % inhibition ([6]; HEX 12.5 mM alone): 76% | % inhibition ([6]; HEX 25 mM alone): 83% | MIC ([1]; K8897, read-out: MIC values): 50 mM | MIC [2, 13]: 50 mM

Further lines, with some results ahead:

MIC [1, 9]: > 64 µg/mL | MIC [2, 10]: > 64 µg/mL | MIC [3, 11]: 0.5 µg/mL | MIC [4, 12]: 0.5 µg/mL
SMILES: CC1(C)S[C@@H]2[C@H](NC(=O)[C@H](N)c3ccc(O)cc3)C(=O)N2[C@H]1C(=O)O [Amoxicillin]

MIC [3, 11]: 0.25 µg/mL | MIC [4, 12]: 0.25 µg/mL
SMILES: CC1(C)S[C@@H]2[C@H](NC(=O)[C@H](N)c3ccccc3)C(=O)N2[C@H]1C(=O)O [Ampicillin]

MIC [1, 9]: 2 µg/mL | MIC [2, 10]: 1 µg/mL | MIC [3, 11]: 0.5 µg/mL | MIC [4, 12]: 0.5 µg/mL
SMILES: CO/N=C(\C(=O)N[C@@H]1C(=O)N2C(C(=O)O)=C(CSC(=O)c3ccco3)CS[C@H]12)c1csc(N)n1 [Ceftiofur]

MIC [1, 9]: > 100 mM | MIC [2, 10]: > 100 mM | MIC [3, 11]: 25 mM | MIC [4, 12]: 50 mM
SMILES: O=C(O)CC(O)(CC(=O)O)C(=O)O [Citric acid, citric acid]
% inhibition ([7]; CIT 6.25 mM alone): 12% | % inhibition ([7]; CIT 12.5 mM alone): 43% | % inhibition ([8]; CIT 12.5 mM alone): 18% | % inhibition ([8]; CIT 25 mM alone): 36%
